# From patent US20110182982A1, “LIPOSOME TREATMENT OF VIRAL INFECTIONS” (University of Oxford, priority 2006, published 2011)
# How the values were obtained:
# Assay in all cases: p24 secretion of HIV-1-infected PBMCs
# Assay type in all cases: cell-based
# Conditions in all cases: for % p24 secretion Week 1-rb / % p24 secretion Week 2-rb / % p24 secretion Week 3-rb / % p24 secretion Week 4-rb: treatment removed 2 weeks
# HIV-1 isolate: 93IN101 = system: HIV-1 isolate: 93IN101
# Procedure: (§1) Clearance of HIV-1 primary isolates from infected human cells by NB-DNJ was assessed using phytohemagglutinin (PHA)-activated peripheral blood mononuclear cells (PBMCs) as indicator cells and the determination of p24 antigen production as the end point.
# (§2) PBMCs from four normal (uninfected) donors were isolated, pooled, and stimulated with PHA (5 μg/ml) for 48 h followed by PHA plus interleukin-2 (40 U/ml) for 72 h in RPMI 1640 medium containing 10% heat-inactivated fetal bovine serum (FBS), 100 U of penicillin per ml, 100 μg of streptomycin per ml, and 2 mM L-glutamine. All experiments were performed in 96-well microtiter plates. To infect cells, 100 μl of PHA-activated PBMCs (5×10^5/ml) was added to each well, after which an equal volume containing 100 50% tissue culture infective doses (TCID50) of primary isolate stock was added. After an overnight incubation, the cells were washed three times with tissue culture medium, and finally re-suspended in medium containing the appropriate liposome treatment or free NB-DNJ. On day 7, approximately 10-30% of the culture volume containing secreted HIV-1 virions was used to infect naïve PBMCs for a second round of infection and treatment (volume transferred was calculated to be the volume necessary for the untreated control of that isolate to infect naïve cells at a TCID50=100). Rounds of treatment and infection of naïve cells were continued over four weeks, and at every time point cellular supernatant containing secreted virions was isolated and used in capture ELISAs to determine p24 concentration (measure of secretion). Additionally, supernatant isolated at each time point throughout treatment was used to infect naïve PBMCs (TCID50=100) for two weeks with no further treatment, which allowed for the observation of a rebound in viral activity.
# (§3) PBMCs infected with 8 primary isolates (listed in Table 3) were incubated in the presence of free NB-DNJ (concentrations ranging 0-1 mM) or liposome-encapsulated NB-DNJ (0-3.75 μM, final lipid concentration of 50 μM).
# HIV-1 isolate: 97USNG30 = system: HIV-1 isolate: 97USNG30
# Procedure: as §1, §2, §3
# HIV-1 isolate: BR93020 = system: HIV-1 isolate: BR93020
# Procedure: as §1, §2, §3
# HIV-1 isolate: UG92021 = system: HIV-1 isolate: UG92021
# Procedure: as §1, §2, §3
# [1] = Human immunodeficiency virus 1, PBMC, free, three rounds of treatment
smiles,measurement,setting,value
"CCCCN1C[C@H](O)[C@@H](O)[C@H](O)[C@H]1CO [NB-DNJ, N-butyl-1,5-dideoxy-1,5-imino-D-glucitol]",decrease in secretion,"HIV-1 isolate: 93IN101; 1 mM free in medium, first week",50%
same,% p24 secretion Week 1,HIV-1 isolate: 93IN101; NB-DNJ 250 uM,106%
same,% p24 secretion Week 2,HIV-1 isolate: 93IN101; NB-DNJ 250 uM,81%
same,% p24 secretion Week 3,HIV-1 isolate: 93IN101; NB-DNJ 250 uM,78%
same,% p24 secretion Week 4,HIV-1 isolate: 93IN101; NB-DNJ 250 uM,66%
same,% p24 secretion Week 1-rb,HIV-1 isolate: 93IN101; NB-DNJ 250 uM,96%
same,% p24 secretion Week 2-rb,HIV-1 isolate: 93IN101; NB-DNJ 250 uM,88%
same,% p24 secretion Week 3-rb,HIV-1 isolate: 93IN101; NB-DNJ 250 uM,81%
same,% p24 secretion Week 4-rb,HIV-1 isolate: 93IN101; NB-DNJ 250 uM,72%
same,% p24 secretion Week 1,HIV-1 isolate: 93IN101; NB-DNJ 500 uM,75%
same,% p24 secretion Week 2,HIV-1 isolate: 93IN101; NB-DNJ 500 uM,45%
same,% p24 secretion Week 3,HIV-1 isolate: 93IN101; NB-DNJ 500 uM,7%
same,% p24 secretion Week 4,HIV-1 isolate: 93IN101; NB-DNJ 500 uM,2%
same,% p24 secretion Week 1-rb,HIV-1 isolate: 93IN101; NB-DNJ 500 uM,88%
same,% p24 secretion Week 2-rb,HIV-1 isolate: 93IN101; NB-DNJ 500 uM,37%
same,% p24 secretion Week 3-rb,HIV-1 isolate: 93IN101; NB-DNJ 500 uM,11%
same,% p24 secretion Week 4-rb,HIV-1 isolate: 93IN101; NB-DNJ 500 uM,0%
same,% p24 secretion Week 1,HIV-1 isolate: 93IN101; NB-DNJ 1000 uM,67%
same,% p24 secretion Week 2,HIV-1 isolate: 93IN101; NB-DNJ 1000 uM,17%
same,% p24 secretion Week 3,HIV-1 isolate: 93IN101; NB-DNJ 1000 uM,3%
same,% p24 secretion Week 4,HIV-1 isolate: 93IN101; NB-DNJ 1000 uM,0%
same,% p24 secretion Week 1-rb,HIV-1 isolate: 93IN101; NB-DNJ 1000 uM,51%
same,% p24 secretion Week 2-rb,HIV-1 isolate: 93IN101; NB-DNJ 1000 uM,4%
same,% p24 secretion Week 3-rb,HIV-1 isolate: 93IN101; NB-DNJ 1000 uM,1%
same,% p24 secretion Week 4-rb,HIV-1 isolate: 93IN101; NB-DNJ 1000 uM,0%
same,% p24 secretion Week 1,HIV-1 isolate: 97USNG30; NB-DNJ 250 uM,96%
same,% p24 secretion Week 2,HIV-1 isolate: 97USNG30; NB-DNJ 250 uM,102%
same,% p24 secretion Week 3,HIV-1 isolate: 97USNG30; NB-DNJ 250 uM,100%
same,% p24 secretion Week 4,HIV-1 isolate: 97USNG30; NB-DNJ 250 uM,95%
same,% p24 secretion Week 1-rb,HIV-1 isolate: 97USNG30; NB-DNJ 250 uM,112%
same,% p24 secretion Week 2-rb,HIV-1 isolate: 97USNG30; NB-DNJ 250 uM,109%
same,% p24 secretion Week 3-rb,HIV-1 isolate: 97USNG30; NB-DNJ 250 uM,97%
same,% p24 secretion Week 4-rb,HIV-1 isolate: 97USNG30; NB-DNJ 250 uM,101%
same,% p24 secretion Week 1,HIV-1 isolate: 97USNG30; NB-DNJ 500 uM,74%
same,% p24 secretion Week 2,HIV-1 isolate: 97USNG30; NB-DNJ 500 uM,45%
same,% p24 secretion Week 3,HIV-1 isolate: 97USNG30; NB-DNJ 500 uM,8%
same,% p24 secretion Week 4,HIV-1 isolate: 97USNG30; NB-DNJ 500 uM,3%
same,% p24 secretion Week 1-rb,HIV-1 isolate: 97USNG30; NB-DNJ 500 uM,82%
same,% p24 secretion Week 2-rb,HIV-1 isolate: 97USNG30; NB-DNJ 500 uM,19%
same,% p24 secretion Week 3-rb,HIV-1 isolate: 97USNG30; NB-DNJ 500 uM,7%
same,% p24 secretion Week 4-rb,HIV-1 isolate: 97USNG30; NB-DNJ 500 uM,1%
same,% p24 secretion Week 1,HIV-1 isolate: 97USNG30; NB-DNJ 1000 uM,46%
same,% p24 secretion Week 2,HIV-1 isolate: 97USNG30; NB-DNJ 1000 uM,9%
same,% p24 secretion Week 3,HIV-1 isolate: 97USNG30; NB-DNJ 1000 uM,0%
same,% p24 secretion Week 4,HIV-1 isolate: 97USNG30; NB-DNJ 1000 uM,0%
same,% p24 secretion Week 1-rb,HIV-1 isolate: 97USNG30; NB-DNJ 1000 uM,53%
same,% p24 secretion Week 2-rb,HIV-1 isolate: 97USNG30; NB-DNJ 1000 uM,3%
same,% p24 secretion Week 3-rb,HIV-1 isolate: 97USNG30; NB-DNJ 1000 uM,0%
same,% p24 secretion Week 4-rb,HIV-1 isolate: 97USNG30; NB-DNJ 1000 uM,0%
same,IC50,HIV-1 isolate: BR93020; [1],250 µM
same,IC90,HIV-1 isolate: BR93020; [1],375 µM
same,% p24 secretion Week 1,HIV-1 isolate: BR93020; NB-DNJ 250 uM,89%
same,% p24 secretion Week 2,HIV-1 isolate: BR93020; NB-DNJ 250 uM,74%
same,% p24 secretion Week 3,HIV-1 isolate: BR93020; NB-DNJ 250 uM,53%
same,% p24 secretion Week 4,HIV-1 isolate: BR93020; NB-DNJ 250 uM,55%
same,% p24 secretion Week 1-rb,HIV-1 isolate: BR93020; NB-DNJ 250 uM,97%
same,% p24 secretion Week 2-rb,HIV-1 isolate: BR93020; NB-DNJ 250 uM,77%
same,% p24 secretion Week 3-rb,HIV-1 isolate: BR93020; NB-DNJ 250 uM,71%
same,% p24 secretion Week 4-rb,HIV-1 isolate: BR93020; NB-DNJ 250 uM,59%
same,% p24 secretion Week 1,HIV-1 isolate: BR93020; NB-DNJ 500 uM,60%
same,% p24 secretion Week 2,HIV-1 isolate: BR93020; NB-DNJ 500 uM,19%
same,% p24 secretion Week 3,HIV-1 isolate: BR93020; NB-DNJ 500 uM,1%
same,% p24 secretion Week 4,HIV-1 isolate: BR93020; NB-DNJ 500 uM,1%
same,% p24 secretion Week 1-rb,HIV-1 isolate: BR93020; NB-DNJ 500 uM,68%
same,% p24 secretion Week 2-rb,HIV-1 isolate: BR93020; NB-DNJ 500 uM,3%
same,% p24 secretion Week 3-rb,HIV-1 isolate: BR93020; NB-DNJ 500 uM,0%
same,% p24 secretion Week 4-rb,HIV-1 isolate: BR93020; NB-DNJ 500 uM,1%
same,% p24 secretion Week 1,HIV-1 isolate: BR93020; NB-DNJ 1000 uM,58%
same,% p24 secretion Week 2,HIV-1 isolate: BR93020; NB-DNJ 1000 uM,2%
same,% p24 secretion Week 3,HIV-1 isolate: BR93020; NB-DNJ 1000 uM,0%
same,% p24 secretion Week 4,HIV-1 isolate: BR93020; NB-DNJ 1000 uM,0%
same,% p24 secretion Week 1-rb,HIV-1 isolate: BR93020; NB-DNJ 1000 uM,44%
same,% p24 secretion Week 2-rb,HIV-1 isolate: BR93020; NB-DNJ 1000 uM,0%
same,% p24 secretion Week 3-rb,HIV-1 isolate: BR93020; NB-DNJ 1000 uM,0%
same,% p24 secretion Week 4-rb,HIV-1 isolate: BR93020; NB-DNJ 1000 uM,0%
same,% p24 secretion Week 1,HIV-1 isolate: UG92021; NB-DNJ 250 uM,90%
same,% p24 secretion Week 2,HIV-1 isolate: UG92021; NB-DNJ 250 uM,83%
same,% p24 secretion Week 3,HIV-1 isolate: UG92021; NB-DNJ 250 uM,88%
same,% p24 secretion Week 4,HIV-1 isolate: UG92021; NB-DNJ 250 uM,77%
same,% p24 secretion Week 1-rb,HIV-1 isolate: UG92021; NB-DNJ 250 uM,110%
same,% p24 secretion Week 2-rb,HIV-1 isolate: UG92021; NB-DNJ 250 uM,101%
same,% p24 secretion Week 3-rb,HIV-1 isolate: UG92021; NB-DNJ 250 uM,91%
same,% p24 secretion Week 4-rb,HIV-1 isolate: UG92021; NB-DNJ 250 uM,85%
same,% p24 secretion Week 1,HIV-1 isolate: UG92021; NB-DNJ 500 uM,85%
same,% p24 secretion Week 2,HIV-1 isolate: UG92021; NB-DNJ 500 uM,56%
same,% p24 secretion Week 3,HIV-1 isolate: UG92021; NB-DNJ 500 uM,23%
same,% p24 secretion Week 4,HIV-1 isolate: UG92021; NB-DNJ 500 uM,8%
same,% p24 secretion Week 1-rb,HIV-1 isolate: UG92021; NB-DNJ 500 uM,98%
same,% p24 secretion Week 2-rb,HIV-1 isolate: UG92021; NB-DNJ 500 uM,62%
same,% p24 secretion Week 3-rb,HIV-1 isolate: UG92021; NB-DNJ 500 uM,27%
same,% p24 secretion Week 4-rb,HIV-1 isolate: UG92021; NB-DNJ 500 uM,19%
same,% p24 secretion Week 1,HIV-1 isolate: UG92021; NB-DNJ 1000 uM,61%
same,% p24 secretion Week 2,HIV-1 isolate: UG92021; NB-DNJ 1000 uM,21%
same,% p24 secretion Week 3,HIV-1 isolate: UG92021; NB-DNJ 1000 uM,5%
same,% p24 secretion Week 4,HIV-1 isolate: UG92021; NB-DNJ 1000 uM,0%
same,% p24 secretion Week 1-rb,HIV-1 isolate: UG92021; NB-DNJ 1000 uM,72%
same,% p24 secretion Week 2-rb,HIV-1 isolate: UG92021; NB-DNJ 1000 uM,19%
same,% p24 secretion Week 3-rb,HIV-1 isolate: UG92021; NB-DNJ 1000 uM,3%
same,% p24 secretion Week 4-rb,HIV-1 isolate: UG92021; NB-DNJ 1000 uM,0%
